# Assay results as given in patent US20050048603A1 (priority 2001, published 2005).
# B1: mycoAC holoenzyme expressed in E. coli (N-terminal His6-tag) (protein)
# chain: MRGSHHHHHHGSMAARKCGAPPIAADGSTRRPDCVTAVRTQARAPTQHYAESVARRQRVLTITAWLAVVVTGSFALMQLATGAGGWYIALINVFTAVTFAIVPLLHRFGGLVAPLTFIGTAYVAIFAIGWDVGTDAGAQFFFLVAAALVVLLVGIEHTALAVGLAAVAAGLVIALEFLVPPDTGLQPPWAMSVSFVLTTVSACGVAVATVWFALRDTARAEAVMEAEHDRSEALLANMLPASIAERLKEPERNIIADKYDEASVLFADIVGFTERASSTAPADLVRFLDRLYSAFDELVDQHGLEKIKVSGDSYMVVSGVPRPRPDHTQALADFALDMTNVAAQLKDPRGNPVPLRVGLATGPVVAGVVGSRRFFYDVWGDAVNVASRMESTDSVGQIQVPDEVYERLKDDFVLRERGHINVKGKGVMRTWYLIGRKVAADPGEVRGAEPRTAGV
# Assays:
# [1] = target: mycoAC (adenylyl cyclase Rv1625c) (Mycobacterium tuberculosis, UniProt P9WQ35); format: biochemical
# [2] = target: P9WQ35
Molecule,acceptance as a substrate [1],AC activity of the bacterial membrane preparation [2] [nmol cAMP/mg·min^-1]
Mn-GTP,not accepted as a substrate,
B1,,19
